Numbering of substitutions follows the chain as printed.
Assays:
RXRγ [1] = target: T1, RXRγ (Mus musculus, UniProt P28705); experiment: holoreceptor transactivation assay, RXRγ; format: cell-based; details: for EC50: holoreceptor assay, read-out: RXR Trans EC50 γ; for Emax: relative to 10^-6 M cyclopropyl penta-2,4-dienoic acid reference, read-out: % efficacy, RXRγ transactivation
T1 construct: expressed in transfected cells
T1 sequence (P28705 1-463): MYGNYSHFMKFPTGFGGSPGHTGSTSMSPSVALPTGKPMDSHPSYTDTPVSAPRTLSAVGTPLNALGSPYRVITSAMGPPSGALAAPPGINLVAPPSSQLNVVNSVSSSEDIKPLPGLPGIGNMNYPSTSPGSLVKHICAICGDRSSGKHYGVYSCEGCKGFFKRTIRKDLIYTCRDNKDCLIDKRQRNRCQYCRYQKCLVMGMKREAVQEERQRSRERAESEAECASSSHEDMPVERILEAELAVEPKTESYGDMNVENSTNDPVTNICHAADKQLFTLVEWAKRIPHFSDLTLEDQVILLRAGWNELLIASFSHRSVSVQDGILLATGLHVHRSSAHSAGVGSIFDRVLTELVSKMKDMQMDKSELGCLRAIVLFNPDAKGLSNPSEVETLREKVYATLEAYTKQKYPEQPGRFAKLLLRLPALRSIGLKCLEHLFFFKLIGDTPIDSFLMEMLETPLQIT
From the text: (§1) Other assays described below, measure the ability of the compounds of the present invention to bind to, and/or activate various retinoid receptor subtypes. When in these assays a compound binds to a given receptor subtype and activates the transcription of a reporter gene through that subtype, then the compound is considered an agonist of that receptor subtype. […] In the below described assays the ability of the compounds to bind to RARα, RARβ, RARγ, RXRα, RXRβ and RXRγ receptors, and the ability or inability of the compounds to activate transcription of a reporter gene through these receptor subtypes can be tested. […] However, some of the compounds of the invention may behave as retinoid antagonists or partial antagonists and/or as inverse agonists. Because of the complex distribution of the different retinoid receptors in various organs of the mammalian body partial agonists and partial antagonists and compounds which have the characteristics of both may lend themselves to particularly useful therapeutic applications and may avoid serious side effects of conventional retinoid drugs.
(§2) A holoreceptor transactivation assay and a ligand binding assay which measure the antagonist/agonist like activity of the compounds of the invention, or their ability to bind to the several retinoid receptor subtypes, respectively, are described in published PCT Application No. WO WO93/11755 (particularly on pages 30-33 and 37-41) published on Jun. 24, 1993, the specification of which is also incorporated herein by reference. A detailed experimental procedure for holoreceptor transactivations has been described by Heyman et al. Cell 68, 397-406, (1992); Allegretto et al. J. Biol. Chem. 268, 26625-26633, and Mangelsdorf et al. The Retinoids: Biology, Chemistry and Medicine, pp 319-349, Raven Press Ltd., New York, which are expressly incorporated herein by reference. The results obtained in this assay are expressed in EC50 numbers, as they are also in the chimeric receptor transactivation assay. The results of ligand binding assay are expressed in Kd numbers. (See Cheng et al. Biochemical Pharmacology Vol. 22 pp 3099-3108, expressly incorporated herein by reference.)
(§3) Table 1 discloses the activity of certain exemplary compounds of the invention in the above-described chimeric receptor transactivation assay, holoreceptor transactivation assay and a ligand binding assays. Particularly, the transactivation data pertaining to RAR receptors were obtained in the chimeric assay, and the data pertaining to transactivation of RXR receptors were obtained in the holoreceptor transactivation assay.

RXRγ [2] = target: T2, RXRγ (Homo sapiens, UniProt P48443); experiment: ligand binding assay, RXRγ; details: read-out: RXR Bind Ki γ
T2 sequence (P48443 1-463): T1 sequence (P28705 1-463) with T13A, F15Y, V31A, P34S, S228T, S230G, V258M, S450T
From the text: as §1, §2, §3

RXRα = target: T3, RXRα (Homo sapiens, UniProt P19793); experiment: holoreceptor transactivation assay, RXRα; format: cell-based; details: for EC50: holoreceptor assay, read-out: RXR Trans EC50 α; for Emax: relative to 10^-6 M cyclopropyl penta-2,4-dienoic acid reference, read-out: % efficacy, RXRα transactivation
T3 construct: expressed in transfected cells
T3 sequence (P19793 1-462): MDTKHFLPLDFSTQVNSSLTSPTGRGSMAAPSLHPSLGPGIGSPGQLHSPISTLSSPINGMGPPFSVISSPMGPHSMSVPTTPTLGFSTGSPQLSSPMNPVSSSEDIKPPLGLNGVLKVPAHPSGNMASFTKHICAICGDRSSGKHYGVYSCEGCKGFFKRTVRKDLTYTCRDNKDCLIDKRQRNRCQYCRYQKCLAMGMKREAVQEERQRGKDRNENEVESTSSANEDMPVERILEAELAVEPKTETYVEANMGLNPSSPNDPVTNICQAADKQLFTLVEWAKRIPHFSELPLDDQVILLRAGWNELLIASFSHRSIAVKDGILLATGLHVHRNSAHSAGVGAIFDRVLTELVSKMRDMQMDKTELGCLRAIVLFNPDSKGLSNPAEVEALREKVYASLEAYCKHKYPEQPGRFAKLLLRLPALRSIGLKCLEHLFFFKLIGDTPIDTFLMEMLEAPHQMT
From the text: as §1, §2, §3

RARα = target: T4, RARα (Homo sapiens, UniProt P10276); experiment: ligand binding assay, RARα; details: read-out: RAR Bind Ki α
T4 sequence (P10276 1-462): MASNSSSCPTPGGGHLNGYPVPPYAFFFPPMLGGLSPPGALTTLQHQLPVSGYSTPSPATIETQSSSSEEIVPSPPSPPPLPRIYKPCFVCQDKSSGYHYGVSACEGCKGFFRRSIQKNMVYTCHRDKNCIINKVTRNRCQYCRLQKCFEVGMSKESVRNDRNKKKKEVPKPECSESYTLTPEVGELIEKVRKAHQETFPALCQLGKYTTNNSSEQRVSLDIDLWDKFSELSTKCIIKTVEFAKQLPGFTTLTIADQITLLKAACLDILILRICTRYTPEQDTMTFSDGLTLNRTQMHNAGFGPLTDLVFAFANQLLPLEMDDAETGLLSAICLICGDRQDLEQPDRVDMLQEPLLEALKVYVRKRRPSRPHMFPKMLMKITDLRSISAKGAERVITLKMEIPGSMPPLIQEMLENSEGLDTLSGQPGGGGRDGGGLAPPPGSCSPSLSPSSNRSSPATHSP
From the text: as §1, §2, §3

| Structure (SMILES) | EC50 (RXRγ [1]) [nM] | Emax (RXRγ [1]) [%] | Ki (RXRγ [2]) [nM] | EC50 (RXRα) [nM] | Emax (RXRα) [%] | Ki (RARα) [nM] |
| --- | --- | --- | --- | --- | --- | --- |
| Cc1cc2c(cc1N(CC1CC1)c1ccc(C(=O)O)cc1)C(C)(C)CCN2C(C)C [Compound 26, 4-[(1-Isopropyl-4,4,7-trimethyl-1,2,3,4-tetrahydro-quinolin-6-yl)(cyclopropylmethyl)amino]benzoic acid] | 1000 | 75 | 1300 | > 1000 | 25 | 15000 |
| CCN(c1ccc(C(=O)O)cc1)c1ccc2c(c1)C(C)(C)CC(=O)N2C(C)C [Compound 6, 4-[(1-Isopropyl-4,4-dimethyl-2-oxo-1,2,3,4-tetrahydroquinolin-6-yl)ethylamino]benzoic Acid] |  |  | > 10000 | 1000 | 50 | 10000 |
| CC(C)CCN(c1ccc(C(=O)O)cc1)c1ccc2c(c1)C(C)(C)CCN2C(C)C [Compound 14, 4-[(1-Isopropyl-4,4-dimethyl-1,2,3,4-tetrahydroquinolin-6-yl)(3-methylbutyl)amino]-benzoic Acid] |  |  | > 1000 |  |  | 340 |
| CCN(c1ccc(C(=O)O)cc1)c1ccc2c(c1)C(C)(C)CCN2C(C)C [Compound 12, 4-[(1-Isopropyl-4,4-dimethyl-1,2,3,4-tetrahydroquinolin-6-yl)ethylamino]benzoic acid] | 148 | 150 | 1300 | 78 | 134 | 467 |
| Cc1cc2c(cc1N(C)c1ccc(C(=O)O)cc1)C(C)(C)CCN2C(C)C [Compound 22, 4-[(1-Isopropyl-4,4,7-trimethyl-1,2,3,4-tetrahydroquinolin-6-yl)methylamino]benzoic acid] | 1000 | 100 | > 1000 | 1000 | 80 | > 10000 |
| CCN(c1ccc(C(=O)O)cc1)c1ccc2c(c1)N(C(C)C)CCC2(C)C [Compound 38, 4-[(1-Isopropyl-4,4-dimethyl-1,2,3,4-tetrahydroquinolin-7-yl)ethylamino]benzoic acid] | 1 | 109 | 27 | 0.6 | 114 | > 10000 |
| CC(C)N1CCC(C)(C)c2cc(N(C)c3ccc(C(=O)O)cc3)ccc21 [Compound 10, 4-[(1-Isopropyl-4,4-dimethyl-1,2,3,4-tetrahydroquinolin-6-yl)methylamino]benzoic Acid] | 1000 | 50 | > 10000 | 1000 | 70 | > 10000 |
| CCN(c1ccc(C(=O)O)cc1)c1cc2c(cc1C)N(C(C)C)CCC2(C)C [Compound 24, 4-[(1-Isopropyl-4,4,7-trimethyl-1,2,3,4-tetrahydroquinolin-6-yl)ethylamino]benzoic acid] | 69 | 117 | > 1000 | 36 | 90 | > 10000 |

The next lines start with the values.

| EC50 (RXRγ [1]) [nM] | Emax (RXRγ [1]) [%] | Ki (RXRγ [2]) [nM] | EC50 (RXRα) [nM] | Emax (RXRα) [%] | Ki (RARα) [nM] | Structure (SMILES) |
| --- | --- | --- | --- | --- | --- | --- |
| 4 | 102 | > 1000 | 4 | 103 | > 10000 | Cc1cc2c(cc1Nc1ccc(C(=O)O)cc1)N(C(C)C)CCC2(C)C [Compound 50, 4-(1-Isopropyl-4,4,6-trimethyl-1,2,3,4-tetrahydro-quinolin-7-ylamino)-benzoic acid] |
| 2 | 112 | 60 | 1 | 121 | 6700 | CC(C)CN(c1ccc(C(=O)O)cc1)c1ccc2c(c1)N(C(C)C)CCC2(C)C [Compound 39, 4-[(1-Isopropyl-4,4-dimethyl-1 2,3,4-tetrahydroquinolin-7-yl)isobutylamino]benzoic acid] |
| 0.3 | 96 | 95 | 0.2 | 92 | 3010 | CCCN(c1ccc(C(=O)O)cc1)c1cc2c(cc1C)C(C)(C)CCN2C(C)C [Compound 53, 4-[(1-Isopropyl-4,4,6-trimethyl-1,2,3,4-tetrahydro-quinolin-7-yl)-propyl-amino]-benzoic acid] |
| 0.2 | 105 | 34 | 0.1 | 110 | 5100 | CC(C)N1CCC(C)(C)c2ccc(N(CC3CC3)c3ccc(C(=O)O)cc3)cc21 [Compound 40, 4-[(1-Isolpropyl-4,4-dimethyl-1,2,3,4-tetrahydroquinolin-7-yl)(cylopropylmethyl)amino]benzoic acid] |
| 47 | 104 | 317 | 32 | 92 | > 10000 | Cc1cc2c(cc1N(C)c1ccc(C(=O)O)cc1)N(C(C)C)CCC2(C)C [Compound 51, 4-[(1-Isopropyl-4,4,6-trimethyl-1,2,3,4-tetrahydro-quinolin-7-yl)-methyl-amino]-benzoic acid] |
| 0.5 | 96 | 38 | 0.2 | 94 | 9600 | CCN(c1ccc(C(=O)O)cc1)c1cc2c(cc1C)C(C)(C)CCN2C(C)C [Compound 52, 4-[-(1-Isopropyl-4,4,6-trimethyl-1,2,3,4-tetrahydro-quinolin-7-yl)ethylamino]-benzoic acid] |
